Bounds are passed on as bounds.

The nature of one series: in vitro. The following applies: human, hepatocytes.
Description: Intrinsic clearance in human hepatocytes at 0.2 nmol assessed per million cells up to 240 mins in presence of NADPH by LC-MS/MS analysis
On to `CCOC(=O)N1CCC(=C2c3ccc(Cl)cc3CCc3ccc[n+](C)c32)CC1`, for which the hepatocyte CLint at 4 h came out at 6 µL/min/1e6 cells.

As to `CCOC(=O)N1CCC2(CC1)OC21c2ccc(Cl)cc2CCc2cccnc21` (configuration not stated), the intrinsic clearance (hepatocyte CLint) at 4 h turned out to be 26.2 µL/min/1e6 cells.

On to `CCOC(=O)N1CCC(=C2c3ccc(Cl)cc3C(O)Cc3cccnc32)CC1` (configuration not stated), for which the hepatocyte CLint at 4 h stood at 40 µL/min/1e6 cells.

With `CCOC(=O)N1C=C/C(=C2\c3ccc(Cl)cc3CCc3cc(O)cnc32)CC1`, the hepatocyte CLint at 4 h is 67 µL/min/1e6 cells.

`CCOC(=O)N1CCC(=C2c3ccc(Cl)cc3C=Cc3cccnc32)CC1`: the hepatocyte CLint at 4 h came to 9 µL/min/1e6 cells.

Molecule `CCOC(=O)N1C=C/C(=C2\c3ccc(Cl)cc3CC(O)c3cccnc32)CC1` (configuration not stated) showed an intrinsic clearance (hepatocyte CLint) at 4 h of 82 µL/min/1e6 cells.

For `CCOC(=O)N1CCC(=C2c3ccc(Cl)cc3CC(O)c3cccnc32)CC1` (configuration not stated), the hepatocyte CLint at 4 h was 61.5 µL/min/1e6 cells.

`CCOC(=O)N1CC(O)C(=C2c3ccc(Cl)cc3CCc3cccnc32)C(O)C1` (configuration not stated) returned an intrinsic clearance (hepatocyte CLint) at 4 h of 18 µL/min/1e6 cells.

Turning to `CCOC(=O)N1CCC(=C2c3ccc(Cl)cc3CCc3ccc[n+]([O-])c32)CC1`, the hepatocyte CLint at 4 h came to 17.8 µL/min/1e6 cells.

The molecule `CCOC(=O)N1C=C/C(=C2/c3ccc(Cl)cc3CCc3cc(O)cnc32)CC1` came in with a hepatocyte CLint at 4 h of 62 µL/min/1e6 cells.

Molecule `CCOC(=O)N1CCC(=C2c3ccc(Cl)cc3CCc3ccc(C(F)F)nc32)CC1` returned a hepatocyte CLint at 4 h of 48.7 µL/min/1e6 cells.

Molecule `CCOC(=O)N1CCC(=C2c3ccc(Cl)cc3CCc3c(CO)ccnc32)CC1` registered a hepatocyte CLint at 4 h of 58.6 µL/min/1e6 cells.

In the case of `OC1Cc2cc(Cl)ccc2C(=C2CCNCC2)c2ncccc21` (configuration not stated), the hepatocyte CLint at 4 h stood at 3.14 µL/min/1e6 cells.

As for `CCOC(=O)N1CCC2(CC1)OC21c2ccc(Cl)cc2CCc2ccc[n+]([O-])c21` (configuration not stated), the hepatocyte CLint at 4 h was determined as 4.6 µL/min/1e6 cells.

For `CCOC(=O)N1CCC(=C2c3ccc(Cl)cc3CC(F)c3cccnc32)CC1` (configuration not stated), the hepatocyte CLint at 4 h was 32 µL/min/1e6 cells.

`OC1Cc2cccnc2C(=C2CCNCC2)c2ccc(Cl)cc21` (configuration not stated) had a hepatocyte CLint at 4 h below 1.75 µL/min/1e6 cells.

In turn, `CCOC(=O)N1CC/C(=C2/c3ccc(Cl)cc3CCc3cccnc32)C(O)C1` (configuration not stated) yielded a hepatocyte CLint at 4 h of 19 µL/min/1e6 cells.

As to `CCOC(=O)N1CCC(=C2c3ccc(Cl)cc3CCc3cc(O)cnc32)CC1`, the hepatocyte CLint at 4 h turned out to be 96 µL/min/1e6 cells.

`CCOC(=O)N1C(O)CC(=C2c3ccc(Cl)cc3CCc3cccnc32)CC1O` (configuration not stated) displayed a hepatocyte CLint at 4 h of 14 µL/min/1e6 cells.

A short description of a further series: physchem. Conditions: octanol/water, pH 7.4.
Description: Octanol/water partition coefficient, log D of compound at pH 7.4 by shake-flask method
The molecule `CCOC(=O)N1CCC(=C2c3ccc(Cl)cc3CCc3ccc[n+](C)c32)CC1` showed a logD of 0.3.

`CCOC(=O)N1CCC2(CC1)OC21c2ccc(Cl)cc2CCc2cccnc21` (configuration not stated): the logD stood at 2.9.

In turn, `CCOC(=O)N1CCC(=C2c3ccc(Cl)cc3C(O)Cc3cccnc32)CC1` (configuration not stated) came in with a logD of 3.2.

Regarding `CCOC(=O)N1C=C/C(=C2\c3ccc(Cl)cc3CCc3cc(O)cnc32)CC1`, the logD worked out at 3.1.

The molecule `CCOC(=O)N1CCC(=C2c3ccc(Cl)cc3C=Cc3cccnc32)CC1` came in with a logD of 2.6.

The molecule `Clc1ccc2c(c1)CCc1cccnc1C2=C1CCNCC1` [DESLORATADINE] returned a logD of 1.3.

Molecule `CCOC(=O)N1C=C/C(=C2/c3ccc(Cl)cc3CCc3cccnc32)CC1` came in with a logD of 3.6.

As for `CCOC(=O)N1C=C/C(=C2\c3ccc(Cl)cc3CC(O)c3cccnc32)CC1` (configuration not stated), the logD worked out at 3.4.

`CCOC(=O)N1CCC(=C2c3ccc(Cl)cc3CC(O)c3cccnc32)CC1` (configuration not stated) returned a logD of 3.3.

In the case of `CCOC(=O)N1CC(O)C(=C2c3ccc(Cl)cc3CCc3cccnc32)C(O)C1` (configuration not stated), the logD turned out to be 2.8.

Regarding `CCOC(=O)N1CCC(=C2c3ccc(Cl)cc3CCc3ccc[n+]([O-])c32)CC1`, the log distribution coefficient (logD) turned out to be 2.8.

Molecule `CCOC(=O)N1C=C/C(=C2\c3ccc(Cl)cc3CCc3cccnc32)CC1` displayed a logD of 4.3.

Take `CCOC(=O)N1C=C/C(=C2/c3ccc(Cl)cc3CCc3cc(O)cnc32)CC1`: the logD came to 3.9.

As to `CCOC(=O)N1CCC(=C2c3ccc(Cl)cc3CCc3ccc(C(F)F)nc32)CC1`, the logD was found to be 4.6.

`CCOC(=O)N1CCC(=C2c3ccc(Cl)cc3CCc3c(CO)ccnc32)CC1` registered a logD of 2.6.

For the molecule `OC1Cc2cc(Cl)ccc2C(=C2CCNCC2)c2ncccc21` (configuration not stated), the logD worked out at 1.1.

As for `CCOC(=O)N1CCC2(CC1)OC21c2ccc(Cl)cc2CCc2ccc[n+]([O-])c21` (configuration not stated), the logD turned out to be 2.1.

In the case of `CCOC(=O)N1CCC(=C2c3ccc(Cl)cc3CC(F)c3cccnc32)CC1` (configuration not stated), the logD worked out at 4.5.

The molecule `OC1Cc2cccnc2C(=C2CCNCC2)c2ccc(Cl)cc21` (configuration not stated) showed a logD of 0.94.

Consider `CCOC(=O)N1CC/C(=C2/c3ccc(Cl)cc3CCc3cccnc32)C(O)C1` (configuration not stated), for which the logD worked out at 3.1.

As to `CCOC(=O)N1CCC(=C2c3ccc(Cl)cc3CCc3cc(O)cnc32)CC1`, the logD amounted to 3.1.

Consider `CCOC(=O)N1C(O)CC(=C2c3ccc(Cl)cc3CCc3cccnc32)CC1O` (configuration not stated), for which the logD worked out at 2.3.

The nature of the next series: in vitro. Conditions: dog, MDCK.
Description: Apparent permeability in RRCK cells
Regarding `CCOC(=O)N1CCC(=C2c3ccc(Cl)cc3CCc3ccc[n+](C)c32)CC1`, the Papp was determined as 0.2 ×10⁻⁶ cm/s.

As for `CCOC(=O)N1CCC2(CC1)OC21c2ccc(Cl)cc2CCc2cccnc21` (configuration not stated), the Papp amounted to 17.9 ×10⁻⁶ cm/s.

On to `CCOC(=O)N1CCC(=C2c3ccc(Cl)cc3C(O)Cc3cccnc32)CC1` (configuration not stated), for which the Papp turned out to be 26.2 ×10⁻⁶ cm/s.

The molecule `CCOC(=O)N1CCC(=C2c3ccc(Cl)cc3C=Cc3cccnc32)CC1` came in with a Papp of 98 ×10⁻⁶ cm/s.

On to `Clc1ccc2c(c1)CCc1cccnc1C2=C1CCNCC1` [DESLORATADINE], for which the Papp is 2.8 ×10⁻⁶ cm/s.

The molecule `CCOC(=O)N1C=C/C(=C2/c3ccc(Cl)cc3CCc3cccnc32)CC1` showed a Papp of 53 ×10⁻⁶ cm/s.

In turn, `CCOC(=O)N1C=C/C(=C2\c3ccc(Cl)cc3CC(O)c3cccnc32)CC1` (configuration not stated) registered an apparent permeability (Papp) of 78 ×10⁻⁶ cm/s.

In turn, `CCOC(=O)N1CCC(=C2c3ccc(Cl)cc3CC(O)c3cccnc32)CC1` (configuration not stated) displayed a Papp of 23.7 ×10⁻⁶ cm/s.

In turn, `CCOC(=O)N1CC(O)C(=C2c3ccc(Cl)cc3CCc3cccnc32)C(O)C1` (configuration not stated) registered an apparent permeability coefficient (Papp) of 23 ×10⁻⁶ cm/s.

`CCOC(=O)N1CCC(=C2c3ccc(Cl)cc3CCc3ccc[n+]([O-])c32)CC1` showed a Papp of 26.8 ×10⁻⁶ cm/s.

With `CCOC(=O)N1C=C/C(=C2\c3ccc(Cl)cc3CCc3cccnc32)CC1`, the Papp turned out to be 40 ×10⁻⁶ cm/s.

Regarding `CCOC(=O)N1CCC(=C2c3ccc(Cl)cc3CCc3ccc(C(F)F)nc32)CC1`, the apparent permeability (Papp) came out at 7.7 ×10⁻⁶ cm/s.

`CCOC(=O)N1CCC(=C2c3ccc(Cl)cc3CCc3c(CO)ccnc32)CC1`: the Papp amounted to 16.2 ×10⁻⁶ cm/s.

The molecule `OC1Cc2cc(Cl)ccc2C(=C2CCNCC2)c2ncccc21` (configuration not stated) yielded a Papp of 78.4 ×10⁻⁶ cm/s.

With `CCOC(=O)N1CCC2(CC1)OC21c2ccc(Cl)cc2CCc2ccc[n+]([O-])c21` (configuration not stated), the Papp came to 15.2 ×10⁻⁶ cm/s.

The molecule `CCOC(=O)N1CCC(=C2c3ccc(Cl)cc3CC(F)c3cccnc32)CC1` (configuration not stated) came in with a Papp of 13 ×10⁻⁶ cm/s.

The molecule `OC1Cc2cccnc2C(=C2CCNCC2)c2ccc(Cl)cc21` (configuration not stated) had a Papp of 79.9 ×10⁻⁶ cm/s.

As for `CCOC(=O)N1CC/C(=C2/c3ccc(Cl)cc3CCc3cccnc32)C(O)C1` (configuration not stated), the apparent permeability (Papp) is 22 ×10⁻⁶ cm/s.

In the case of `CCOC(=O)N1CCC(=C2c3ccc(Cl)cc3CCc3cc(O)cnc32)CC1`, the apparent permeability (Papp) came to 11 ×10⁻⁶ cm/s.

As for `CCOC(=O)N1C(O)CC(=C2c3ccc(Cl)cc3CCc3cccnc32)CC1O` (configuration not stated), the Papp was found to be 19.8 ×10⁻⁶ cm/s.

The nature of another series: in vitro. Conditions: human, liver microsomes.
`CCOC(=O)N1CCC(=C2c3ccc(Cl)cc3CCc3ccc[n+](C)c32)CC1` had a microsomal CLint at 1 h, 10 µM of 23 µL/min/mg.

For `CCOC(=O)N1CCC2(CC1)OC21c2ccc(Cl)cc2CCc2cccnc21` (configuration not stated), the microsomal CLint at 1 h, 10 µM was 89 µL/min/mg.

Take `CCOC(=O)N1CCC(=C2c3ccc(Cl)cc3C(O)Cc3cccnc32)CC1` (configuration not stated): the microsomal CLint at 1 h, 10 µM came to 157 µL/min/mg.

The molecule `CCOC(=O)N1C=C/C(=C2\c3ccc(Cl)cc3CCc3cc(O)cnc32)CC1` returned a microsomal CLint at 1 h, 10 µM of 66 µL/min/mg.

In the case of `CCOC(=O)N1CCC(=C2c3ccc(Cl)cc3CC(O)c3cccnc32)CC1` (configuration not stated), the microsomal CLint at 1 h, 10 µM is 132 µL/min/mg.

The molecule `CCOC(=O)N1CC(O)C(=C2c3ccc(Cl)cc3CCc3cccnc32)C(O)C1` (configuration not stated) came in with a microsomal CLint at 1 h, 10 µM of 35 µL/min/mg.

Take `CCOC(=O)N1CCC(=C2c3ccc(Cl)cc3CCc3ccc[n+]([O-])c32)CC1`: the microsomal CLint at 1 h, 10 µM is 48 µL/min/mg.

Molecule `CCOC(=O)N1C=C/C(=C2\c3ccc(Cl)cc3CCc3cccnc32)CC1` had a microsomal CLint at 1 h, 10 µM of 68 µL/min/mg.

`CCOC(=O)N1C=C/C(=C2/c3ccc(Cl)cc3CCc3cc(O)cnc32)CC1` showed a microsomal CLint at 1 h, 10 µM of 61 µL/min/mg.

The molecule `CCOC(=O)N1CCC(=C2c3ccc(Cl)cc3CCc3ccc(C(F)F)nc32)CC1` registered a microsomal CLint at 1 h, 10 µM of 108 µL/min/mg.

In turn, `CCOC(=O)N1CCC(=C2c3ccc(Cl)cc3CCc3c(CO)ccnc32)CC1` displayed a microsomal CLint at 1 h, 10 µM of 283 µL/min/mg.

Molecule `CCOC(=O)N1CCC2(CC1)OC21c2ccc(Cl)cc2CCc2ccc[n+]([O-])c21` (configuration not stated) came in with a microsomal CLint at 1 h, 10 µM below 7 µL/min/mg.

On to `CCOC(=O)N1CCC(=C2c3ccc(Cl)cc3CC(F)c3cccnc32)CC1` (configuration not stated), for which the microsomal CLint at 1 h, 10 µM was 120 µL/min/mg.

`CCOC(=O)N1CC/C(=C2/c3ccc(Cl)cc3CCc3cccnc32)C(O)C1` (configuration not stated) gave a microsomal CLint at 1 h, 10 µM of 51 µL/min/mg.

The molecule `CCOC(=O)N1CCC(=C2c3ccc(Cl)cc3CCc3cc(O)cnc32)CC1` showed a microsomal CLint at 1 h, 10 µM of 132 µL/min/mg.

`CCOC(=O)N1C(O)CC(=C2c3ccc(Cl)cc3CCc3cccnc32)CC1O` (configuration not stated) had a microsomal CLint at 1 h, 10 µM of 21 µL/min/mg.

Values taken from ChEMBL document CHEMBL4627397 (J Med Chem, 2020).
